Results as given in patent US9150579B2, “Selective PI3K delta inhibitors” (Rhizen Pharmaceuticals SA, priority 2012, dated 2015).
Where two headings read alike, the source gives them in different places.

Legend:
[1] = Oral pharmacokinetics in rats; type: in vivo
Procedure: The protocol for the pharmacokinetics studies in rat is provided below.
All animals were fasted overnight (12 hours) before dosing and continued till 4.0 hours after administration of test item. Test item formulations were prepared in 1% Tween 80 and 99% media (0.5% Methyl cellulose, 4000 cPs, pH 2.2). The blood samples (150 μl from each animal) were collected from the orbital sinus, and placed into a micro centrifuge tube containing disodium EDTA as an anticoagulant. Blood samples were centrifuged immediately with a speed of 1000 g for 10 min at 4° C. and separated plasma samples were frozen at below −80° C. and stored until analysis. The concentrations of test item in all formulation were analyzed by HPLC. The plasma concentrations of test item in all samples were analyzed by LC-MS/MS. Pharmacokinetic parameters viz. Cmax, AUC0-t, Tmax, and t1/2 were estimated by using WinNonlin software.

[2] = Oral pharmacokinetics in dogs; type: in vivo
[3] = Metabolic stability in mouse liver microsomes; type: in vitro ADME; conditions: 1 μM test item, 60 minutes, NADPH
Procedure: (§1) Metabolic stability studies were conducted using mouse, rat, and human liver microsomes. The protocol for the studies with mouse, rat, and human liver microsomes (all from BD Gentest, USA) is provided below. In brief, 0.4 mg protein was preincubated with 2 mM NADPH (cofactor) in phosphate buffer (pH˜7.4) for 15 min at 37° C. and then added with 1 μM test item and incubated further for 60 minutes in triplicate. The reaction mixture was terminated with methanol containing an internal standard and centrifuged further to analyze the test item remaining in the supernatant by LC-MS/MS. The percent parent compound remaining was calculated in comparison with similar samples terminated at 0 minutes.

[4] = Metabolic stability in human liver microsomes; type: in vitro ADME; conditions: 1 μM test item, 60 minutes, NADPH
Procedure: as §1

[5] = Metabolic stability in rat liver microsomes; type: in vitro ADME; conditions: 1 μM test item, 60 minutes, NADPH
Procedure: as §1

PI3K delta = PI3K delta (Homo sapiens (Human), UniProt O00329); assay: Assay 1: Fluorescent (HTRF) determination of PI3K enzyme activity, delta; type: biochemical
Procedure: (§2) The homogenous time resolved fluorescence (HTRF) assay allows detection of 3,4,5-triphosphate (PIP3) formed as a result of phosphorylation of phosphotidylinositol 4,5-biphosphate (PIP2) by PI3K isoforms such as α, β, γ or δ.
PI3K isoform activity for α, β, γ or δ was determined using a PI3K human HTRF™ Assay Kit (Millipore, Billerica, Mass.) with modifications. All incubations were carried out at room temperature. […] After the initial incubation, 5 μl/well of 400 μM ATP was added and incubated for an additional 30 minutes. Reaction was terminated by adding 5 μl/well stop solution (Millipore, Billerica, Mass.). Five microliters of detection mix (Millipore, Billerica, Mass.) were then added to each well and was incubated for 6-18 h in the dark. HRTF ratio was measured on a microplate reader (BMG Labtech., Germany) at an excitation wavelength of 337 nm and emission wavelengths of 665 and 620 nm with an integration time of 400 μsec.

PI3K γ = PI3K γ (Homo sapiens (Human), UniProt P48736); assay: Assay 1: Fluorescent (HTRF) determination of PI3K enzyme activity, gamma; type: biochemical
Procedure: as §2
(§3) PI3K isoform activity for α, β, γ or δ was determined using a PI3K human HTRF™ Assay Kit (Millipore, Billerica, Mass.) with modifications. All incubations were carried out at room temperature. […] After the initial incubation, 5 μl/well of 400 μM ATP was added and incubated for an additional 30 minutes. Reaction was terminated by adding 5 μl/well stop solution (Millipore, Billerica, Mass.). Five microliters of detection mix (Millipore, Billerica, Mass.) were then added to each well and was incubated for 6-18 h in the dark.

PI3K β = PI3K β (Homo sapiens (Human), UniProt P42338); assay: Assay 1: Fluorescent (HTRF) determination of PI3K enzyme activity, beta; type: biochemical
Procedure: as §2, §3

PI3K α = PI3K α (Homo sapiens (Human), UniProt P42336); assay: Assay 1: Fluorescent (HTRF) determination of PI3K enzyme activity, alpha; type: biochemical
Procedure: as §2, §3

PI3K α, sequence (P42336 whole entry): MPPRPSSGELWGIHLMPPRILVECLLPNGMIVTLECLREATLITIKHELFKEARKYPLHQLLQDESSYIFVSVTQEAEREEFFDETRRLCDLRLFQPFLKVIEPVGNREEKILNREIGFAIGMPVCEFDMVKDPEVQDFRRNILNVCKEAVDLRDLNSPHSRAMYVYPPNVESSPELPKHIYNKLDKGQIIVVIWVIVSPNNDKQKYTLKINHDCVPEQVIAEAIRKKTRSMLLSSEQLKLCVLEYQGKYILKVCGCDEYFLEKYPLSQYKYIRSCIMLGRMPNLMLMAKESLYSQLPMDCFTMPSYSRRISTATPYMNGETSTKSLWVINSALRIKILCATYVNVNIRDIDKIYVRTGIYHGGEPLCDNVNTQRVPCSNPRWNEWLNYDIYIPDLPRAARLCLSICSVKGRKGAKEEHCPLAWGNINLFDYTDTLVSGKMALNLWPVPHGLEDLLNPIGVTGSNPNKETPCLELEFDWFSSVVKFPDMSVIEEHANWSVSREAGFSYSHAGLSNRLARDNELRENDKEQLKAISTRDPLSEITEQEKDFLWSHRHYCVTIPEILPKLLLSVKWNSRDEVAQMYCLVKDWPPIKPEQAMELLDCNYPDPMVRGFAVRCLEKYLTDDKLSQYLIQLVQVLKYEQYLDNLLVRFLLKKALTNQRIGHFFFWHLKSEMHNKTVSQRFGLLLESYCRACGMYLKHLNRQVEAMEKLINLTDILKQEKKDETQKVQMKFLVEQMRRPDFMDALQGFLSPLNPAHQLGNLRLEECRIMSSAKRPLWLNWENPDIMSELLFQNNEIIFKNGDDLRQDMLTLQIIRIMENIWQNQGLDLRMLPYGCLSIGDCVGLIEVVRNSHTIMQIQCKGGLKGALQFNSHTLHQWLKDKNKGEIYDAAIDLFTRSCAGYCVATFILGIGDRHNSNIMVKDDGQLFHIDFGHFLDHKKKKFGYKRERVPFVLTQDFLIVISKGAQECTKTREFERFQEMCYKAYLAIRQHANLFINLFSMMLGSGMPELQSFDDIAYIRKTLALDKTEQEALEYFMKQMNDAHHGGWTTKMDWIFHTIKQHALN
PI3K α, sequence (P27986 whole entry partner): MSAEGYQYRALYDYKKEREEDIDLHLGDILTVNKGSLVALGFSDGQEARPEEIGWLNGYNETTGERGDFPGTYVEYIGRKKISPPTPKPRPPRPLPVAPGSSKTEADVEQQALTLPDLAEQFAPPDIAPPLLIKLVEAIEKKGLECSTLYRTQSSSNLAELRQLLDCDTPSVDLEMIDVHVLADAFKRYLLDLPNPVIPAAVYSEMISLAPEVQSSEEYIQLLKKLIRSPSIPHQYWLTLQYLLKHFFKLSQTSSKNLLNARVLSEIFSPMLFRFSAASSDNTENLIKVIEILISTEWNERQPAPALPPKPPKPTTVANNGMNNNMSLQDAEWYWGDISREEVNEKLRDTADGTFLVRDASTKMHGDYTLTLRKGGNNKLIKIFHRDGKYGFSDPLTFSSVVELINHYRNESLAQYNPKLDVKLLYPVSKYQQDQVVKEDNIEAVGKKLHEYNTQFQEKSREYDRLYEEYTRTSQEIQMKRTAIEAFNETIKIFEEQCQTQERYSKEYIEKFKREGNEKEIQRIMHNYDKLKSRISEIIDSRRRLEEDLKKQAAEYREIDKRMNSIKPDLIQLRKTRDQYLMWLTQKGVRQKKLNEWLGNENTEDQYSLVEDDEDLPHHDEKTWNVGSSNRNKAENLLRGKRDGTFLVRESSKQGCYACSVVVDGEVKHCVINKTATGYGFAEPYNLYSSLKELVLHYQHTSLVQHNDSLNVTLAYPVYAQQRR
PI3K β, sequence (P42338 whole entry): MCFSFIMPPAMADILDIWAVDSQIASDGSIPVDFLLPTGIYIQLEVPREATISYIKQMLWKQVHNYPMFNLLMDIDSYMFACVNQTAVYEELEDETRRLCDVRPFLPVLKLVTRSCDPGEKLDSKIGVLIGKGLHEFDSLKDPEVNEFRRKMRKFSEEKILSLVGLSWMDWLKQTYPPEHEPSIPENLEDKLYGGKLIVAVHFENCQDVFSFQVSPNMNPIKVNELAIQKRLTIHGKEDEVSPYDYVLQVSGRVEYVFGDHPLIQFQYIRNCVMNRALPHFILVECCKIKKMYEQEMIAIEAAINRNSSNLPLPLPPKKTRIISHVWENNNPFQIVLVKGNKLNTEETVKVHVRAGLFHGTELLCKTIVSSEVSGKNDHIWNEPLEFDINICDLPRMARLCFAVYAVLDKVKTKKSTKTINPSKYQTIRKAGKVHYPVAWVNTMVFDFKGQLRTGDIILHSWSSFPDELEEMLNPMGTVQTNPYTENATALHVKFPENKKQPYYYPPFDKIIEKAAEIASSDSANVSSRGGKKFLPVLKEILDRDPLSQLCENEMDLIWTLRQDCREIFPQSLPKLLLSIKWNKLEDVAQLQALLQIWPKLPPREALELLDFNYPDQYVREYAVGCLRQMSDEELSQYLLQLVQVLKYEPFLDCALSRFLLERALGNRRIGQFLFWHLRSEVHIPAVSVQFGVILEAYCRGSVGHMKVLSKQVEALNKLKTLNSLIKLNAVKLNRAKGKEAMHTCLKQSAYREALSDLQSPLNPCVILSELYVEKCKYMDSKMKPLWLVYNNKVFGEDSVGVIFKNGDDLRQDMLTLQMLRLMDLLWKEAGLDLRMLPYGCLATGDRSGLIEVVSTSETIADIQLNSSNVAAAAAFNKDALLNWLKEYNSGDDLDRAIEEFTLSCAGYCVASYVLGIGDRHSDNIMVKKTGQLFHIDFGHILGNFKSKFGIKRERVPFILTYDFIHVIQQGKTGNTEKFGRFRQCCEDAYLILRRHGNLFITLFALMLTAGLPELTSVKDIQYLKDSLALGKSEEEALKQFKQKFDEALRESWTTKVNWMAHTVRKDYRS
PI3K β, sequence (P27986 whole entry partner): as the sequence (P27986 whole entry partner) above
PI3K γ, sequence (P48736 whole entry): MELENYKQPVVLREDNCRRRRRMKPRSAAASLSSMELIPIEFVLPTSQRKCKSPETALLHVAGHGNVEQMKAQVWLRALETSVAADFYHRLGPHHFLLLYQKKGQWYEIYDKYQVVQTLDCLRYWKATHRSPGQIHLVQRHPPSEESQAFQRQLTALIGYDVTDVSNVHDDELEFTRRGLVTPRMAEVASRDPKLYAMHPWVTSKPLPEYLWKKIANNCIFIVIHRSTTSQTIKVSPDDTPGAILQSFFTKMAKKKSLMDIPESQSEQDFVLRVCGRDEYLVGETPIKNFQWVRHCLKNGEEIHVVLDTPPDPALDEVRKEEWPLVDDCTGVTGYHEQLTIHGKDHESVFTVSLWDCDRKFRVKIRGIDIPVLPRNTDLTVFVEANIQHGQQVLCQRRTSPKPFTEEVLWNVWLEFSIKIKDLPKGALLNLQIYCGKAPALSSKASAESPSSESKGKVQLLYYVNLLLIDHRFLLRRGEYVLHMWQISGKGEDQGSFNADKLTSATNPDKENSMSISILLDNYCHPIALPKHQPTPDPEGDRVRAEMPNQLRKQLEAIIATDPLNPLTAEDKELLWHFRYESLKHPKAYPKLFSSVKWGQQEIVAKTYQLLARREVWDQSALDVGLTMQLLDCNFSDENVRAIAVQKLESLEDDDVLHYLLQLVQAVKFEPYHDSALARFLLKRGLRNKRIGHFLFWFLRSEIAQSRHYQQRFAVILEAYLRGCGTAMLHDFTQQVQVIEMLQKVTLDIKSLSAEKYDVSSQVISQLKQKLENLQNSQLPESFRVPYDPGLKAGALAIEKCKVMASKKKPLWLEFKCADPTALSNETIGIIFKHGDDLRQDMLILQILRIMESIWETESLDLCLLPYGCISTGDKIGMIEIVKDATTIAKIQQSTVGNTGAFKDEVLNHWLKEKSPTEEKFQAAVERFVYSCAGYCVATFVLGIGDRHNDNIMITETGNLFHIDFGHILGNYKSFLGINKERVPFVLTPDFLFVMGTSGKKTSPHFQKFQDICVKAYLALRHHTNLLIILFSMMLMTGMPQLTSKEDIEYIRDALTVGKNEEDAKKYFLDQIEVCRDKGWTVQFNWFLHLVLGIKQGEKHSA
PI3K delta, sequence (O00329 whole entry, canonical isoform): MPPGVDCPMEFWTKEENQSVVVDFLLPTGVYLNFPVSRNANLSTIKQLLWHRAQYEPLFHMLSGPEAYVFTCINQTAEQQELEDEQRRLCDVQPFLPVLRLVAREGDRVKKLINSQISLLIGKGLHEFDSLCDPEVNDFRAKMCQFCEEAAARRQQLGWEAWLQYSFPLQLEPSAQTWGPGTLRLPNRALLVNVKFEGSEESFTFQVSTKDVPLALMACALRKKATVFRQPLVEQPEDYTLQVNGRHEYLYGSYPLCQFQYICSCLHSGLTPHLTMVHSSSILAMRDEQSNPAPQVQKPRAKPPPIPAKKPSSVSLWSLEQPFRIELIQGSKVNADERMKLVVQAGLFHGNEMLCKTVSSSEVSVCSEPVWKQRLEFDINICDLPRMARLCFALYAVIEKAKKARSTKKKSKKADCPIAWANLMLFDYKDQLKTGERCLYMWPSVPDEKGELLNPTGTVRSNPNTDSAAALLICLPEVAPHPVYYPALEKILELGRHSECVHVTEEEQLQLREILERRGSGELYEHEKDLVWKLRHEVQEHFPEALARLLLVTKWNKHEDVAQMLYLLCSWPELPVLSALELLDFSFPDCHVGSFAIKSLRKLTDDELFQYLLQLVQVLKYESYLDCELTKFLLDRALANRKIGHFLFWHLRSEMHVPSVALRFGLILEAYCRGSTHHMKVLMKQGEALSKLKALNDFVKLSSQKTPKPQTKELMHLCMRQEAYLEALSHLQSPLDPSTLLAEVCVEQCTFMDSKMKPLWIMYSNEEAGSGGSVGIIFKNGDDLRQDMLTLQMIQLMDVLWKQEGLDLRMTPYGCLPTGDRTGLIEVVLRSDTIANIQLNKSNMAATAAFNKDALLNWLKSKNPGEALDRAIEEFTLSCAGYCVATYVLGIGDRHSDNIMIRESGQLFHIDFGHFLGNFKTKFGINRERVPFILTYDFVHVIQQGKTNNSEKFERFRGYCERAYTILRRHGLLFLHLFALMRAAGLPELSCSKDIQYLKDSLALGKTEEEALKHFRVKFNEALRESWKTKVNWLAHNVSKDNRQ
PI3K delta, sequence (P27986 whole entry partner, canonical isoform): as the sequence (P27986 whole entry partner) above

| SMILES | Cmax relative to free base of compound B1 [1] | area under the curve (AUC) relative to free base of compound B1 [1] | Cmax relative to free base of compound B1 [2] | area under the curve (AUC) relative to free base of compound B1 [2] | Metabolic stability in liver microsomes, Mouse (percent parent compound remaining) [3] [%] | Metabolic stability in liver microsomes, Human (percent parent compound remaining) [4] [%] | Metabolic stability in liver microsomes, Rat (percent parent compound remaining) [5] [%] | IC50 (PI3K delta; μM) [µM] | inhibition at 1 µM (PI3K γ) [%] | inhibition at 1 µM (PI3K β) [%] | inhibition at 1 µM (PI3K α) [%] | IC50 (PI3K delta) [µM] |
| --- | --- | --- | --- | --- | --- | --- | --- | --- | --- | --- | --- | --- |
| CC(C)Oc1ccc(-c2nn([C@@H](C)c3oc4ccc(F)cc4c(=O)c3-c3cccc(F)c3)c3ncnc(N)c23)cc1F.Cc1ccc(S(=O)(=O)O)cc1 [PTSA salt of compound B1, (S)-2-(1-(4-amino-3-(3-fluoro-4-isopropoxyphenyl)-1H-pyrazolo[3,4-d]pyrimidin-1-yl)ethyl)-6-fluoro-3-(3-fluorophenyl)-4H-chromen-4-one 4-methylbenzenesulfonate] | about twice | nearly three times | more than twice | about four times | – | – | – | – | – | – | – | – |
| CC(C)Oc1ccc(-c2nn(C(C)c3oc4ccc(F)cc4c(=O)c3-c3cccc(F)c3)c3ncnc(N)c23)cc1F (racemic) [Compound B, 2-(1-(4-amino-3-(3-fluoro-4-isopropoxyphenyl)-1H-pyrazolo[3,4-d]pyrimidin-1-yl)ethyl)-6-fluoro-3-(3-fluorophenyl)-4H-chromen-4-one] | – | – | – | – | 54.9 | 46.9 | 51.4 | – | – | – | – | – |
| CC(C)Oc1ccc(-c2nn([C@H](C)c3oc4ccc(F)cc4c(=O)c3-c3cccc(F)c3)c3ncnc(N)c23)cc1F [Compound B2, (R)-2-(1-(4-amino-3-(3-fluoro-4-isopropoxyphenyl)-1H-pyrazolo[3,4-d]pyrimidin-1-yl)ethyl)-6-fluoro-3-(3-fluorophenyl)-4H-chromen-4-one] | – | – | – | – | 54.1 | 27.5 | 48.6 | – | – | – | – | – |
| CC(C)Oc1ccc(-c2nn([C@H](C)c3oc4ccccc4c(=O)c3-c3cccc(F)c3)c3ncnc(N)c23)cc1F [Compound A2, (R)-2-(1-(4-amino-3-(3-fluoro-4-isopropoxyphenyl)-1H-pyrazolo[3,4-d]pyrimidin-1-yl)ethyl)-3-(3-fluorophenyl)-4H-chromen-4-one] | – | – | – | – | 34.7 | 11.4 | 44.2 | > 10 | 66.3 | 38.7 | 0.95 | – |
| CC(C)Oc1ccc(-c2nn(C(C)c3oc4ccccc4c(=O)c3-c3cccc(F)c3)c3ncnc(N)c23)cc1F (racemic) [Compound A, 2-(1-(4-amino-3-(3-fluoro-4-isopropoxyphenyl)-1H-pyrazolo[3,4-d]pyrimidin-1-yl)ethyl)-3-(3-fluorophenyl)-4H-chromen-4-one] | – | – | – | – | 32.6 | 38.4 | 43.1 | – | 55.9 | 9.95 | 2.63 | 0.0373 |
